Laboratory results from PubChem BioAssay AID248 (DTP/NCI, 2004).
Inconclusive results and toxic doses are left out. Cut-off read from the data, not from the text of the source: active = T/C of 150% or more; inactive = T/C below 125%.

Test system: L1210 leukemia ip in BDF1 mice, survival T/C
Assay: NCI In Vivo Anticancer Drug Screen. Data for tumor model L1210 Leukemia (intraperitoneal) in B6D2F1 (BDF1) mice
Details: endpoint: mean survival time, higher = longer survival
Summary of the method: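 Mice bearing the transplanted tumor received compound or vehicle. Survival of the treated group was divided by that of the vehicle-treated control group to give the ratio.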

[1] = dose: 100.0 mg/kg/injection, schedule: Q01DX009 (ip), vehicle: Klucel (hydroxypropylcellulose) (HPC)
[2] = dose: 100.0 mg/kg/injection, schedule: Q04DX003 (ip), vehicle: Klucel (hydroxypropylcellulose) (HPC)
[3] = dose: 200.0 mg/kg/injection, schedule: Q01DX009 (ip), vehicle: Klucel (hydroxypropylcellulose) (HPC)
[4] = dose: 200.0 mg/kg/injection, schedule: Q04DX003 (ip), vehicle: Klucel (hydroxypropylcellulose) (HPC)
[5] = dose: 400.0 mg/kg/injection, schedule: Q01DX009 (ip), vehicle: Klucel (hydroxypropylcellulose) (HPC)
[6] = dose: 400.0 mg/kg/injection, schedule: Q04DX003 (ip), vehicle: Klucel (hydroxypropylcellulose) (HPC)
[7] = dose: 100.0 mg/kg/injection, schedule: Q01DX001 (ip), vehicle: saline
[8] = dose: 200.0 mg/kg/injection, schedule: Q01DX001 (ip), vehicle: saline
[9] = dose: 400.0 mg/kg/injection, schedule: Q01DX001 (ip), vehicle: saline
[10] = dose: 100.0 mg/kg/injection, schedule: Q01DX009 (ip), vehicle: saline
[11] = dose: 200.0 mg/kg/injection, schedule: Q01DX009 (ip), vehicle: saline
[12] = dose: 100.0 mg/kg/injection, schedule: Q04DX003 (ip), vehicle: saline
[13] = dose: 200.0 mg/kg/injection, schedule: Q04DX003 (ip), vehicle: saline

Measured: T/C

Cc1nc(Cl)c2c(n1)Oc1nc(C)nc(Cl)c1C2c1ccc(Cl)cc1
inactive: dose: 50.0 mg/kg/injection, schedule: Q04DX003 (ip), vehicle: Klucel (hydroxypropylcellulose) (HPC) 97 % of control | [1] 96 % of control | [2] 97 % of control | [3] 97 % of control | [4] 101 % of control | [5] 107 % of control | [6] 95 % of control

C=CCOCC1CO1 (centres undefined)
inactive: dose: 75.0 mg/kg/injection, schedule: Q01DX001 (ip), vehicle: acetone 101 % of control | dose: 150.0 mg/kg/injection, schedule: Q01DX001 (ip), vehicle: acetone 97 % of control | dose: 300.0 mg/kg/injection, schedule: Q01DX001 (ip), vehicle: acetone 105 % of control

CC1=NN(c2ccc(S(=O)(=O)O)cc2)C(=O)/C1=C/c1ccc(Cl)cc1Cl
inactive: [7] 110 % of control | [2] 105 % of control | [8] 96 % of control | [4] 97 % of control | [9] 104 % of control | [6] 94 % of control

CC1(C)OCC(C2OC(=O)C(O)=C2O)O1 (centres undefined)
inactive: dose: 50.0 mg/kg/injection, schedule: Q01DX009 (ip), vehicle: saline 111 % of control | [10] 92 % of control | [11] 101 % of control

N/C(=N/N=C/c1ccc(N(CCCl)CCCl)cc1)N[N+](=O)[O-]
inactive: dose: 15.0 mg/kg/injection, schedule: Q01DX Z (ip), vehicle: methylcellulose (MC) 89 % of control | dose: 30.0 mg/kg/injection, schedule: Q01DX Z (ip), vehicle: methylcellulose (MC) 93 % of control | dose: 60.0 mg/kg/injection, schedule: Q01DX Z (ip), vehicle: methylcellulose (MC) 96 % of control | dose: 60.0 mg/kg/injection, schedule: Q01DX Z (oral), vehicle: methylcellulose (MC) 94 % of control | dose: 120.0 mg/kg/injection, schedule: Q01DX Z (ip), vehicle: methylcellulose (MC) 96 % of control | dose: 120.0 mg/kg/injection, schedule: Q01DX Z (oral), vehicle: methylcellulose (MC) 101 % of control | dose: 240.0 mg/kg/injection, schedule: Q01DX Z (ip), vehicle: methylcellulose (MC) 104 % of control | dose: 480.0 mg/kg/injection, schedule: Q01DX Z (ip), vehicle: methylcellulose (MC) 94 % of control

CCCCSP(SCCCC)N1CCCCC1
inactive: [12] 102 % of control | [13] 98 % of control

CCNC(=S)NNC(=S)NNc1ccccc1
inactive: dose: 12.5 mg/kg/injection, schedule: Q04DX002 (ip), vehicle: other 102 % of control | dose: 25.0 mg/kg/injection, schedule: Q04DX002 (ip), vehicle: other 100 % of control | dose: 50.0 mg/kg/injection, schedule: Q04DX002 (ip), vehicle: other 102 % of control

O=C1CCCC(=O)NNC(=O)Nc2ccccc2NC(=O)NN1
inactive: dose: 50.0 mg/kg/injection, schedule: Q01DX001 (ip), vehicle: saline 102 % of control | [7] 90 % of control | [8] 96 % of control | [9] 96 % of control

CC(C)c1ccc(C(=S)N2CCOCC2)cc1
inactive: [2] 97 % of control | [4] 101 % of control | [6] 105 % of control

O=C1c2cccc(O)c2C(=O)c2c(O)cccc21
inactive: [10] 94 % of control | [12] 93 % of control | [11] 97 % of control | [13] 97 % of control | dose: 400.0 mg/kg/injection, schedule: Q01DX009 (ip), vehicle: saline 103 % of control | dose: 400.0 mg/kg/injection, schedule: Q04DX003 (ip), vehicle: saline 97 % of control

CCCCCCCCCCCCCCCCCCNC(=O)Oc1ccc(Cl)c(C)c1
inactive: [1] 88 % of control | dose: 100.0 mg/kg/injection, schedule: Q04DX003 (ip), vehicle: gum acacia 88 % of control | [3] 92 % of control | dose: 200.0 mg/kg/injection, schedule: Q04DX003 (ip), vehicle: gum acacia 86 % of control | [5] 92 % of control | dose: 400.0 mg/kg/injection, schedule: Q04DX003 (ip), vehicle: gum acacia 89 % of control

CC(=O)N(c1ccccc1)c1cc(Cl)cc[n+]1[O-]
inactive: [7] 96 % of control | [8] 96 % of control | [9] 97 % of control
